Source: PubChem BioAssay AID192 (DTP/NCI, 2004)
Values joined by “and” are separate entries in the source; they are usually repeats but may differ in a detail not shown here. Equal entries are not always repeated. Toxic doses and inconclusive results are not listed.

Test system: BDF1 mice, B16 melanoma ip, median survival T/C
Assay: NCI In Vivo Anticancer Drug Screen. Data for tumor model B16 Melanoma (intraperitoneal) in B6D2F1 (BDF1) mice
Settings: endpoint: median survival time, higher = longer survival
Outline: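 Read-out: survival or tumor size, given as treated/control ratio. Controls received vehicle only; animals bore transplantable tumors.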

[1] = dose: 3.12 mg/kg/injection, schedule: Q01DX009 (ip), vehicle: saline with Tween-80
[2] = dose: 6.25 mg/kg/injection, schedule: Q01DX009 (ip), vehicle: saline with Tween-80
[3] = dose: 12.5 mg/kg/injection, schedule: Q01DX009 (ip), vehicle: saline with Tween-80
[4] = dose: 25.0 mg/kg/injection, schedule: Q01DX009 (ip), vehicle: saline with Tween-80
[5] = dose: 50.0 mg/kg/injection, schedule: Q01DX009 (ip), vehicle: saline with Tween-80
[6] = dose: 100.0 mg/kg/injection, schedule: Q01DX009 (ip), vehicle: saline
[7] = dose: 200.0 mg/kg/injection, schedule: Q01DX009 (ip), vehicle: saline
[8] = dose: 6.25 mg/kg/injection, schedule: Q01DX009 (ip), vehicle: Klucel (hydroxypropylcellulose) (HPC)
[9] = dose: 12.5 mg/kg/injection, schedule: Q01DX009 (ip), vehicle: Klucel (hydroxypropylcellulose) (HPC)
[10] = dose: 100.0 mg/kg/injection, schedule: Q01DX009 (ip), vehicle: saline with Tween-80
[11] = dose: 200.0 mg/kg/injection, schedule: Q01DX009 (ip), vehicle: saline with Tween-80
[12] = dose: 400.0 mg/kg/injection, schedule: Q01DX009 (ip), vehicle: saline with Tween-80
[13] = dose: 25.0 mg/kg/injection, schedule: Q01DX009 (ip), vehicle: Klucel (hydroxypropylcellulose) (HPC)
[14] = dose: 50.0 mg/kg/injection, schedule: Q01DX009 (ip), vehicle: Klucel (hydroxypropylcellulose) (HPC)
[15] = dose: 100.0 mg/kg/injection, schedule: Q01DX009 (ip), vehicle: Klucel (hydroxypropylcellulose) (HPC)

With `COC(=O)C(F)C(Br)C(=O)OC` (stereo not drawn) the T/C [1] was 105 % of control, the T/C [2] was 99 % of control and the T/C [3] was 94 % of control. For the same compound, the T/C [4] was 99 % of control and the T/C [5] was 98 % of control.

In the case of `O=C1C(Cl)=C(Nc2ccc(C(=O)Nc3ccc4cc(S(=O)(=O)O)cc(S(=O)(=O)O)c4c3)cc2)C(=O)C(Cl)=C1Nc1ccc(C(=O)Nc2ccc3cc(S(=O)(=O)O)cc(S(=O)(=O)O)c3c2)cc1`, the T/C (dose: 50.0 mg/kg/injection, schedule: Q01DX009 (ip), vehicle: saline) is reported as 109 % of control, the T/C [6] is reported as 102 % of control and the T/C [7] is reported as 100 % of control.

In the case of `O=[N+]([O-])/C=C/C(Cl)(Cl)Cl`, the T/C [8] is reported as 100 % of control and the T/C [9] is reported as 96 % of control.

`Oc1ccc(I)c2cccnc12` was tested, and the T/C [5] was 97 % of control, the T/C [10] was 100 % of control and the T/C [11] was 97 % of control.

In the case of `CNC(=O)Nc1cccc2c(=O)[nH][nH]c(=O)c12`, the T/C (dose: 100.0 mg/kg/injection, schedule: Q04DX003 (ip), vehicle: Klucel (hydroxypropylcellulose) (HPC)) is reported as 112 % of control, the T/C (dose: 200.0 mg/kg/injection, schedule: Q04DX003 (ip), vehicle: Klucel (hydroxypropylcellulose) (HPC)) is reported as 102 % of control and the T/C (dose: 400.0 mg/kg/injection, schedule: Q04DX003 (ip), vehicle: Klucel (hydroxypropylcellulose) (HPC)) is reported as 91 % of control.

In the case of `CC(=O)Nc1ccc(S(=O)(=O)CO)cc1`, the T/C [3] is reported as 97 % of control and 110 % of control, the T/C [4] is reported as 100 % of control and 114 % of control and the T/C [5] is reported as 95 % of control and 96 % of control. For the same compound, the T/C [10] was 92 % of control and 115 % of control, the T/C [11] was 90 % of control and 110 % of control and the T/C [12] was 89 % of control and 99 % of control.

With `COc1cc2cc(c1Cl)N(C)C(=O)CC(OC(=O)CC(C)C)C1(C)OC1C(C)C1CC(O)(NC(=O)O1)C(OC)/C=C/C=C(C)C2` (stereo not drawn) the T/C (dose: 3.1 micrograms/kg/injection, schedule: Q01DX009 (ip), vehicle: saline + alcohol) was 122 % of control, the T/C (dose: 6.25 micrograms/kg/injection, schedule: Q01DX009 (ip), vehicle: saline + alcohol) was 150 % of control and 160 % of control and the T/C (dose: 12.5 micrograms/kg/injection, schedule: Q01DX009 (ip), vehicle: saline + alcohol) was 157 % of control and 169 % of control and 173 % of control. The T/C (dose: 15.0 micrograms/kg/injection, schedule: Q01DX009 (ip), vehicle: saline + alcohol) was 170 % of control, the T/C (dose: 25.0 micrograms/kg/injection, schedule: Q01DX009 (ip), vehicle: saline + alcohol) was 164 % of control and 168 % of control and 183 % of control and the T/C (dose: 30.0 micrograms/kg/injection, schedule: Q01DX009 (ip), vehicle: saline + alcohol) was 179 % of control. For the same compound, the T/C (dose: 50.0 micrograms/kg/injection, schedule: Q01DX009 (ip), vehicle: saline + alcohol) was 163 % of control and the T/C (dose: 60.0 micrograms/kg/injection, schedule: Q01DX009 (ip), vehicle: saline + alcohol) was 191 % of control.

For `O=C(CCl)c1ccc(O)c(O)c1`, the T/C [9] was 94 % of control and the T/C [13] was 87 % of control.

`CCCCCCCC(=O)N/N=C(\CO)[C@]1(O)Cc2c(O)c3c(c(O)c2[C@@H](OC2CC(N)C(O)C(C)O2)C1)C(=O)c1c(OC)cccc1C3=O` (stereo partly drawn) was tested, and the T/C (dose: 3.13 mg/kg/injection, schedule: Q01DX001 (ip), vehicle: water) was 168 % of control, the T/C (dose: 6.25 mg/kg/injection, schedule: Q01DX001 (ip), vehicle: water) was 157 % of control and 200 % of control and the T/C (dose: 12.5 mg/kg/injection, schedule: Q01DX001 (ip), vehicle: water) was 173 % of control and 212 % of control. The T/C (dose: 25.0 mg/kg/injection, schedule: Q01DX001 (ip), vehicle: water) was 174 % of control and 220 % of control and 231 % of control and the T/C (dose: 50.0 mg/kg/injection, schedule: Q01DX001 (ip), vehicle: water) was 91 % of control and 228 % of control and 236 % of control.

With `O=C1CCC(=O)N1CO` the T/C (dose: 37.5 mg/kg/injection, schedule: Q01DX009 (ip), vehicle: saline) was 107 % of control and 112 % of control, the T/C (dose: 75.0 mg/kg/injection, schedule: Q01DX009 (ip), vehicle: saline) was 104 % of control and 107 % of control and the T/C (dose: 150.0 mg/kg/injection, schedule: Q01DX009 (ip), vehicle: saline) was 109 % of control.

`CC1(C)N=C(N)N=C(N)N1c1cc(Cl)ccc1Cl` was tested, and the T/C [8] was 94 % of control, the T/C [9] was 92 % of control and the T/C [13] was 89 % of control and 94 % of control.

For `O=[N+]([O-])c1ccc(/C=C/c2ccc([N+](=O)[O-])cc2S(=O)(=O)O)c(S(=O)(=O)O)c1`, the T/C [10] was 104 % of control, the T/C [11] was 95 % of control and the T/C [12] was 109 % of control.

`CC(CN=Cc1ccccc1[O-])N=Cc1ccccc1[O-].[O]=[V]` (stereo not drawn) was tested, and the T/C (dose: 2.5 mg/kg/injection, schedule: Q01DX009 (ip), vehicle: saline with Tween-80) was 90 % of control, the T/C (dose: 5.0 mg/kg/injection, schedule: Q01DX009 (ip), vehicle: saline with Tween-80) was 90 % of control and the T/C (dose: 5.0 mg/kg/injection, schedule: Q04DX003 (ip), vehicle: saline with Tween-80) was 97 % of control. For the same compound, the T/C (dose: 10.0 mg/kg/injection, schedule: Q04DX003 (ip), vehicle: saline with Tween-80) was 92 % of control.

For `CCCCCC(C)(O)CCCCC`, the T/C [6] was 107 % of control and the T/C [7] was 92 % of control.

`C=C1N(C)c2ccc(Cl)cc2C1(C)C` was tested, and the T/C [9] was 90 % of control, the T/C [13] was 90 % of control and the T/C [14] was 88 % of control. The T/C [15] was 87 % of control.

`CC(CN(C)C)CN1c2ccccc2CCc2ccccc21` (stereo not drawn) was tested, and the T/C (dose: 2.18 mg/kg/injection, schedule: Q01DX009 (ip), vehicle: saline) was 106 % of control, the T/C (dose: 4.37 mg/kg/injection, schedule: Q01DX009 (ip), vehicle: saline) was 110 % of control and the T/C (dose: 8.75 mg/kg/injection, schedule: Q01DX009 (ip), vehicle: saline) was 100 % of control. The T/C (dose: 17.5 mg/kg/injection, schedule: Q01DX009 (ip), vehicle: saline) was 91 % of control.

For `C1CN2CCC1CC2`, the T/C (dose: 1.56 mg/kg/injection, schedule: Q01DX009 (ip), vehicle: saline with Tween-80) was 102 % of control, the T/C [1] was 102 % of control and the T/C [2] was 92 % of control and 99 % of control. For the same compound, the T/C [3] was 86 % of control and 91 % of control and the T/C [4] was 86 % of control and 91 % of control.

`Cc1cccc(C)c1NC(=O)NC(C)C` was tested, and the T/C [15] was 87 % of control, the T/C (dose: 200.0 mg/kg/injection, schedule: Q01DX009 (ip), vehicle: Klucel (hydroxypropylcellulose) (HPC)) was 115 % of control and the T/C (dose: 400.0 mg/kg/injection, schedule: Q01DX009 (ip), vehicle: Klucel (hydroxypropylcellulose) (HPC)) was 118 % of control.

For `CNCCNc1ccc(NCCNC)c2c1C(=O)c1ccccc1C2=O`, the T/C (dose: 2.0 mg/kg/injection, schedule: Q01DX009 (ip), vehicle: acid diluted with saline) was 156 % of control, the T/C (dose: 4.0 mg/kg/injection, schedule: Q01DX009 (ip), vehicle: acid diluted with saline) was 230 % of control and the T/C (dose: 8.0 mg/kg/injection, schedule: Q01DX009 (ip), vehicle: acid diluted with saline) was 231 % of control.

For `O=C1OC(=O)C2C3C=CC(C3=C(c3ccccc3)c3ccccc3)C12` (stereo not drawn), the T/C (dose: 0.78 mg/kg/injection, schedule: Q04DX009 (ip), vehicle: Klucel (hydroxypropylcellulose) (HPC)) was 115 % of control, the T/C (dose: 1.56 mg/kg/injection, schedule: Q04DX009 (ip), vehicle: Klucel (hydroxypropylcellulose) (HPC)) was 121 % of control and the T/C (dose: 3.13 mg/kg/injection, schedule: Q04DX009 (ip), vehicle: Klucel (hydroxypropylcellulose) (HPC)) was 106 % of control.

`COc1cccc2c1C(=O)c1c(O)c3c(c(O)c1C2=O)C[C@@](O)(C(=O)CO)C[C@@H]3OC1CC(N(C)C)C(O)C(C)O1` (stereo partly drawn) was tested, and the T/C (dose: 0.63 mg/kg/injection, schedule: Q01DX001 (ip), vehicle: water) was 119 % of control, the T/C (dose: 1.73 mg/kg/injection, schedule: Q04DX003 (ip), vehicle: water) was 98 % of control and the T/C (dose: 3.6 mg/kg/injection, schedule: Q01DX001 (ip), vehicle: water) was 117 % of control. For the same compound, the T/C (dose: 4.8 mg/kg/injection, schedule: Q04DX003 (ip), vehicle: water) was 94 % of control and 113 % of control, the T/C (dose: 5.0 mg/kg/injection, schedule: Q01DX001 (ip), vehicle: water) was 166 % of control and 170 % of control and the T/C (dose: 6.0 mg/kg/injection, schedule: Q01DX001 (ip), vehicle: water) was 104 % of control.

In the case of `O=C(Nc1ccc(Cl)c(Cl)c1)Nc1c(Oc2ccc(Cl)c(Cl)c2)ccc(Cl)c1S(=O)(=O)O`, the T/C (dose: 3.12 mg/kg/injection, schedule: Q01DX009 (ip), vehicle: Klucel (hydroxypropylcellulose) (HPC)) is reported as 119 % of control, the T/C [8] is reported as 105 % of control and the T/C [2] is reported as 122 % of control. For the same compound, the T/C [9] was 105 % of control, the T/C [13] was 116 % of control and the T/C [4] was 122 % of control. The T/C [14] was 112 % of control and the T/C [15] was 123 % of control.

For `C=C1C(=O)OCC1(C(=O)OCC)C(=O)OCC`, the T/C (dose: 4.0 mg/kg/injection, schedule: Q01DX009 (ip), vehicle: saline with Tween-80) was 109 % of control, the T/C (dose: 8.0 mg/kg/injection, schedule: Q01DX009 (ip), vehicle: saline with Tween-80) was 97 % of control and the T/C (dose: 16.0 mg/kg/injection, schedule: Q01DX009 (ip), vehicle: saline with Tween-80) was 89 % of control.

For `CC(C)N1C(=O)C=C(c2ccc([N+](=O)[O-])cc2)C1=O`, the T/C [3] was 95 % of control and the T/C [5] was 99 % of control.
